Molecular target: T1, human GPR119 (hGPR119) (Homo sapiens, UniProt Q8TDV5)
T1 construct: expressed in transfected cells
T1 sequence (Q8TDV5 1-335): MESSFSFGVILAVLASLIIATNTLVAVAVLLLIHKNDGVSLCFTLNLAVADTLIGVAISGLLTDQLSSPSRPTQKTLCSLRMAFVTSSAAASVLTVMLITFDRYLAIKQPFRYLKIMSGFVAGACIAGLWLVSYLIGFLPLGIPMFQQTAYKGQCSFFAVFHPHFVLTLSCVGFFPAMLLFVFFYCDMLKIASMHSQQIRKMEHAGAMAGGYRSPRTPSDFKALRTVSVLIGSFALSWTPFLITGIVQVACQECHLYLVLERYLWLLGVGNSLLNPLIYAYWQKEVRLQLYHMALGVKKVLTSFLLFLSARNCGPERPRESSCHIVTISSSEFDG
Assay: cAMP accumulation assay (cAMP Gs dynamic HTRF kit)
Type: cell-based
Conditions: CHO-K1 cells stably expressing hGPR119, 4-parameter fit; for Emax: 1 h, % activity normalized to Max/Min controls; for EC50: cAMP accumulation
Method in brief: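 Read-out is HTRF 665/620 nm ratio after 1 h detection at ambient temperature, converted to % activity against positive and negative controls, EC50 and Max activity by 4-parameter fit. Compounds were titrated onto ~10,000 thawed hGPR119-CHO-K1 cells/well for 60 min at 37° C/5% CO2.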

SMILES | Emax [%] | EC50 [nM]
COCC1(CNC[C@H](O)[C@@H](O)[C@H](O)[C@H](O)CO)CCN(C(=O)Cc2ccc(OCCCC3CCN(c4ncc(Cl)cn4)CC3)cc2F)C1 (stereo partly drawn) [Example 121, 2-[4-[3-[1-(5-chloropyrimidin-2-yl)-4-piperidyl]propoxy]-2-fluoro-phenyl]-1-[3-(methoxymethyl)-3-[[[r(2S,3R,4R,5R)-2,3,4,5,6-pentahydroxyhexyl]amino]methyl]pyrrolidin-1-yl]ethanone] | 100 to 130 | ≤ 100
COCC1(CNCC(CO)(CO)CO)CCN(C(=O)Cc2ccc(OCCCC3CCN(c4ncc(Cl)cn4)CC3)cc2F)C1 (centres unmarked) [Example 122, 2-[4-[3-[1-(5-chloropyrimidin-2-yl)-4-piperidyl]propoxy]-2-fluoro-phenyl]-1-[3-[[[3-hydroxy-2,2-bis(hydroxymethyl)propyl]amino]methyl]-3-(methoxymethyl)pyrrolidin-1-yl]ethanone] | 100 to 130 | ≤ 100
O=C(Cc1ccc(OCCC2CC(C3CCN(c4ncc(Cl)cn4)CC3)C2)cc1F)N1CC(CNC[C@H](O)[C@@H](O)[C@H](O)[C@H](O)CO)C1 (stereo partly drawn) [Example 123, 2-[4-[2-[3-[1-(5-chloropyrimidin-2-yl)-4-piperidyl]cyclobutyl]ethoxy]-2-fluoro-phenyl]-1-[3-[[[(2S,3R,4R,5R)-2,3,4,5,6-pentahydroxyhexyl]amino]methyl]azetidin-1-yl]ethanone] | 100 to 130 | 100 to 1000
O=C(Cc1c(F)cc(OCCC2CC(C3CCN(c4ncc(Cl)cn4)CC3)C2)cc1F)N1CC(CNC[C@H](O)[C@@H](O)[C@H](O)[C@H](O)CO)C1 (stereo partly drawn) [Example 124, 2-[4-[2-[3-[1-(5-chloropyrimidin-2-yl)-4-piperidyl]cyclobutyl]ethoxy]-2,6-difluoro-phenyl]-1-[3-[[[(2S,3R,4R,5R)-2,3,4,5,6-pentahydroxyhexyl]amino]methyl]azetidin-1-yl]ethanone] | 100 to 130 | ≤ 100
O=C(Cc1ccc(OCCCC2CCN(C(=O)OC3(C(F)(F)F)COC3)CC2)cc1F)N1CC(CNC[C@H](O)[C@@H](O)[C@H](O)[C@H](O)CO)C1 [Example 125, [3-(trifluoromethyl)oxetan-3-yl] 4-[3-[3-fluoro-4-[2-oxo-2-[3-[[[(2S,3R,4R,5R)-2,3,4,5,6-pentahydroxyhexyl]amino]methyl]azetidin-1-yl]ethyl]phenoxy]propyl]piperidine-1-carboxylate] | 100 to 130 | 100 to 1000
O=C(Cc1c(F)cc(OCCCC2CCN(C(=O)OC3(C(F)(F)F)COC3)CC2)cc1F)N1CC(CNC[C@H](O)[C@@H](O)[C@H](O)[C@H](O)CO)C1 [Example 126, [3-(trifluoromethyl)oxetan-3-yl] 4-[3-[3,5-difluoro-4-[2-oxo-2-[3-[[[(2S,3R,4R,5R)-2,3,4,5,6-pentahydroxyhexyl]amino]methyl]azetidin-1-yl]ethyl]phenoxy]propyl] piperidine-1-carboxylate] | 100 to 130 | 100 to 1000
O=C(NC[C@H](O)[C@@H](O)[C@H](O)[C@H](O)CO)[C@H]1CCN(C(=O)Cc2ccc(OCCCC3CCN(c4ncc(Cl)cn4)CC3)cc2F)C1 [Example 127, (3S)-1-[2-[4-[3-[1-(5-chloropyrimidin-2-yl)-4-piperidyl]propoxy]-2-fluoro-phenyl]acetyl]-N-[(2S,3R,4R,5R)-2,3,4,5,6-pentahydroxyhexyl]pyrrolidine-3-carboxamide] | ≥ 130 | ≤ 100
O=C(NC[C@H](O)[C@@H](O)[C@H](O)[C@H](O)CO)[C@H]1CCN(C(=O)Cc2c(F)cc(OCCCC3CCN(c4ncc(Cl)cn4)CC3)cc2F)C1 [Example 128, (3S)-1-[2-[4-[3-[1-(5-chloropyrimidin-2-yl)-4-piperidyl]propoxy]-2,6-difluoro-phenyl]acetyl]-N-[(2S,3R,4R,5R)-2,3,4,5,6-pentahydroxyhexyl]pyrrolidine-3-carboxamide] | ≥ 130 | ≤ 100
CCOc1cnc(N2CCC(CCCOc3cc(F)c(CC(=O)N4CC[C@H](C(=O)NC[C@H](O)[C@@H](O)[C@H](O)[C@H](O)CO)C4)c(F)c3)CC2)nc1 [Example 130, (3S)-1-[2-[4-[3-[1-(5-ethoxypyrimidin-2-yl)-4-piperidyl]propoxy]-2,6-difluoro-phenyl]acetyl]-N-[(2S,3R,4R,5R)-2,3,4,5,6-pentahydroxyhexyl]pyrrolidine-3-carboxamide] | 100 to 130 | ≤ 100
COCc1cnc(N2CCC(CCCOc3cc(F)c(CC(=O)N4CC[C@H](C(=O)NC[C@H](O)[C@@H](O)[C@H](O)[C@H](O)CO)C4)c(F)c3)CC2)nc1 [Example 131, (3S)-1-[2-[2,6-difluoro-4-[3-[1-[5-(methoxymethyl)pyrimidin-2-yl]-4-piperidyl]propoxy]phenyl]acetyl]-N-[(2S,3R,4R,5R)-2,3,4,5,6-pentahydroxyhexyl]pyrrolidine-3-carboxamide] | 100 to 130 | ≤ 100
O=C(Cc1c(F)cc(OCCCC2CCN(c3ncc(Cl)cn3)CC2)cc1F)N1CC[C@@H](CNC[C@H](O)[C@@H](O)[C@H](O)[C@H](O)CO)C1 [Example 132, 2-[4-[3-[1-(5-chloropyrimidin-2-yl)-4-piperidyl]propoxy]-2,6-difluoro-phenyl]-1-[(3S)-3-[[[(2S,3R,4R,5R)-2,3,4,5,6-pentahydroxyhexyl]amino]methyl]pyrrolidin-1-yl]ethanone] | 100 to 130 | ≤ 100
CCOc1cnc(N2CCC(CCCOc3cc(F)c(CC(=O)N4CC[C@@H](CNC[C@H](O)[C@@H](O)[C@H](O)[C@H](O)CO)C4)c(F)c3)CC2)nc1 [Example 134, 2-[4-[3-[1-(5-ethoxypyrimidin-2-yl)-4-piperidyl]propoxy]-2,6-difluoro-phenyl]-1-[(3S)-3-[[[(2S,3R,4R,5R)-2,3,4,5,6-pentahydroxyhexyl]amino]methyl]pyrrolidin-1-yl]ethanone] | 100 to 130 | ≤ 100
COCc1cnc(N2CCC(CCCOc3cc(F)c(CC(=O)N4CC[C@@H](CNC[C@H](O)[C@@H](O)[C@H](O)[C@H](O)CO)C4)c(F)c3)CC2)nc1 [Example 135, 2-[2,6-difluoro-4-[3-[1-[5-(methoxymethyl)pyrimidin-2-yl]-4-piperidyl]propoxy]phenyl]-1-[(3S)-3-[[[(2S,3R,4R,5R)-2,3,4,5,6-pentahydroxyhexyl]amino]methyl]pyrrolidin-1-yl]ethanone] | 100 to 130 | ≤ 100
COCC1(C(=O)NC[C@H](O)[C@@H](O)[C@H](O)[C@H](O)CO)CCN(C(=O)Cc2ccc(OCCCC3CCN(c4ncc(Cl)cn4)CC3)cc2F)C1 (stereo partly drawn) [Example 136, 1-[2-[4-[3-[1-(5-chloropyrimidin-2-yl)-4-piperidyl]propoxy]-2-fluoro-phenyl]acetyl]-3-(methoxymethyl)-N-[(2S,3R,4R,5R)-2,3,4,5,6-pentahydroxyhexyl]pyrrolidine-3-carboxamide] | 100 to 130 | ≤ 100
COCC1(C(=O)NCC(CO)(CO)CO)CCN(C(=O)Cc2ccc(OCCCC3CCN(c4ncc(Cl)cn4)CC3)cc2F)C1 (centres unmarked) [Example 137, 1-[2-[4-[3-[1-(5-chloropyrimidin-2-yl)-4-piperidyl]propoxy]-2-fluoro-phenyl]acetyl]-N-[3-hydroxy-2,2-bis(hydroxymethyl)propyl]-3-(methoxymethyl)pyrrolidine-3-carboxamide] | 100 to 130 | ≤ 100
O=C(Cc1ccc(OCCC2CCC23CCN(c2ncc(Cl)cn2)CC3)cc1F)N1CC(CNC[C@H](O)[C@@H](O)[C@H](O)[C@H](O)CO)C1 (stereo partly drawn) [Example 138, 2-[4-[2-[7-(5-chloropyrimidin-2-yl)-7-azaspiro[3.5]nonan-3-yl]ethoxy]-2-fluoro-phenyl]-1-[3-[[[(2S,3R,4R,5R)-2,3,4,5,6-pentahydroxyhexyl]amino]methyl]azetidin-1-yl]ethanone] | 50 to 100 | 1000 to 10000
O=C(Cc1c(F)cc(OCCC2CCC23CCN(c2ncc(Cl)cn2)CC3)cc1F)N1CC(CNC[C@H](O)[C@@H](O)[C@H](O)[C@H](O)CO)C1 (stereo partly drawn) [Example 139, 2-[4-[2-[7-(5-chloropyrimidin-2-yl)-7-azaspiro[3.5]nonan-3-yl]ethoxy]-2,6-difluoro-phenyl]-1-[3-[[[(2S,3R,4R,5R)-2,3,4,5,6-pentahydroxyhexyl]amino]methyl]azetidin-1-yl]ethanone] | 100 to 130 | 100 to 1000
CC(C)OC(=O)N1CCC2(CCC2CCOc2ccc(CC(=O)N3CC(CNC[C@H](O)[C@@H](O)[C@H](O)[C@H](O)CO)C3)c(F)c2)CC1 (stereo partly drawn) [Example 140, isopropyl 3-[2-[3-fluoro-4-[2-oxo-2-[3-[[[(2S,3R,4R,5R)-2,3,4,5,6-pentahydroxyhexyl]amino]methyl]azetidin-1-yl]ethyl]phenoxy]ethyl]-7-azaspiro[3.5]nonane-7-carboxylate] | < 50 | > 10000
CC(C)OC(=O)N1CCC2(CCC2CCOc2cc(F)c(CC(=O)N3CC(CNC[C@H](O)[C@@H](O)[C@H](O)[C@H](O)CO)C3)c(F)c2)CC1 (stereo partly drawn) [Example 141, isopropyl 3-[2-[3,5-difluoro-4-[2-oxo-2-[3-[[[(2S,3R,4R,5R)-2,3,4,5,6-pentahydroxyhexyl]amino]methyl]azetidin-1-yl]ethyl]phenoxy]ethyl]-7-azaspiro[3.5]nonane-7-carboxylate] | 50 to 100 | 1000 to 10000
